Assay results from patent US20070128217A1 (priority 2003, published 2007).

How the values were obtained:
[1] = tested on: rabbit serum obtained by immunizing a rabbit with the SARS-CoV strain Frankfurt 1; format: binding; set-up: Binding of a rabbit serum to linear peptides / Binding of a rabbit serum to looped peptides / Rabbit serum linear peptides / Rabbit serum looped peptides / Binding of a rabbit serum to linear peptides of protein N of SARS-CoV Urbani (Rabbit serum linear peptides) / Binding of a rabbit serum to looped/cyclic peptides of protein N of SARS-CoV Urbani (Rabbit serum looped peptides): unit not given here
[2] = tested on: control sera (pooled serum of ten healthy LUMC hospital workers; commercial negative donor pooled serum from the Dutch bloodbank); format: binding, human; set-up: Binding of Control serum LUMC to linear peptides / Binding of Control serum Blood-bank to linear peptides / Binding of Control serum LUMC to looped peptides / Binding of Control Serum Blood-Bank to Looped peptides / Binding of Control serum LUMC to linear peptides of the protein M of SARS-CoV Urbani / Binding of Control serum Blood-bank to linear peptides of the protein M of SARS-CoV Urbani / Binding of Control serum LUMC to looped peptides of the protein M of SARS-CoV Urbani / Binding of Control Serum Blood-Bank to Looped peptides of the protein M of SARS-CoV Urbani: unit not given here
[3] = tested on: antibodies in sera from SARS patients (sera 1a, 1b, 2, 6, 37, 62, London, SARS-yellow, SARS-green); format: binding, human; set-up: Binding of serum 6 to linear peptides of protein X1 of SARS-CoV Urbani / Binding of serum 37 to linear peptides of protein X1 of SARS-CoV Urbani / Binding of serum 6 to looped/cyclic peptide (PEPSCAN-ELISA) / Binding of serum 37 to looped/cyclic peptide (PEPSCAN-ELISA) / Binding of serum 37 to looped/cyclic peptides of protein X1 of SARS-CoV Urbani / Binding of serum 6 to linear peptides of protein X2 / Binding of serum 37 to linear peptides of protein X2 / Binding of serum 37 to looped/cyclic peptides of protein X2 of SARS-CoV Urbani / Binding of serum 6 to linear peptides of protein M of SARS-CoV Urbani / Binding of serum 37 to linear peptides of protein M of SARS-CoV Urbani / Binding of serum 6 to looped/cyclic peptides of protein M of SARS-CoV Urbani / Binding of serum 37 to looped/cyclic peptides of protein M of SARS-CoV Urbani / Binding of serum 6 to linear peptides of protein X3 of SARS-CoV Urbani / Binding of serum 37 to linear peptides of protein X3 of SARS-CoV Urbani / Binding of serum 37 to looped/cyclic peptides of protein X3 of SARS-CoV Urbani / Binding of serum 6 to linear peptides of protein X4 of SARS-CoV Urbani / Binding of serum 37 to linear peptides of protein X4 of SARS-CoV Urbani / Binding of serum 37 to looped/cyclic peptides of protein X4 of SARS-CoV Urbani / Binding of serum 6 to linear peptides of protein X5 of SARS-CoV Urbani / Binding of serum 37 to linear peptides of protein X5 of SARS-CoV Urbani / Binding of serum 37 to looped/cyclic peptides of protein X5 of SARS-CoV Urbani / Binding of serum 6 to linear peptides of protein N of SARS-CoV Urbani / Binding of serum 37 to linear peptides of protein N of SARS-CoV Urbani / Binding of serum 6 to linear peptide (PEPSCAN-ELISA) / Binding of serum 1a to looped/cyclic peptides of protein N of SARS-CoV Urbani / Binding of serum 1b to looped/cyclic peptides of protein N of SARS-CoV Urbani / Binding of serum 2 to looped/cyclic peptides of protein N of SARS-CoV Urbani / Binding of serum 6 to looped/cyclic peptides of protein N of SARS-CoV Urbani / Binding of serum 37 to looped/cyclic peptides of protein N of SARS-CoV Urbani / Binding of serum 62 to looped/cyclic peptides of protein N of SARS-CoV Urbani / Binding of serum London to looped/cyclic peptides of protein N of SARS-CoV Urbani / Binding of serum SARS-green to looped/cyclic peptides of protein N of SARS-CoV Urbani: unit not given here

Sequence: VSQIQLSLLKVTAFQ
- Binding of a rabbit serum to linear peptides [1]: 0.6
- Binding of a rabbit serum to looped peptides [1]: 0.4
- Binding of Control Serum Blood-Bank to Looped peptides [2]: 0.6
- Binding of Control serum Blood-bank to linear peptides [2]: 0.5
- Binding of Control serum LUMC to linear peptides [2]: 0.8
- Binding of Control serum LUMC to looped peptides [2]: 0.6
- Binding of serum 1a to linear peptides of protein X2 [3]: 0.5
- Binding of serum 1a to looped/cyclic peptides of protein X2 of SARS-CoV Urbani [3]: 0.5
- Binding of serum 1b to linear peptides of protein X2 [3]: 0.4
- Binding of serum 1b to looped/cyclic peptides of protein X2 of SARS-CoV Urbani [3]: 0.4
- Binding of serum 2 to linear peptides of protein X2 [3]: 0.4
- Binding of serum 2 to looped/cyclic peptides of protein X2 of SARS-CoV Urbani [3]: 0.4
- Binding of serum 6 to linear peptides of protein X2 [3]: 0.5
- Binding of serum 6 to looped/cyclic peptides of protein X2 of SARS-CoV Urbani [3]: 0.6
- Binding of serum 37 to linear peptides of protein X2 [3]: 0.6
- Binding of serum 37 to looped/cyclic peptides of protein X2 of SARS-CoV Urbani [3]: 0.4
- Binding of serum 62 to linear peptides of protein X2 [3]: 0.3
- Binding of serum 62 to looped/cyclic peptides of protein X2 of SARS-CoV Urbani [3]: 0.6
- Binding of serum London to linear peptides of protein X2 [3]: 0.3
- Binding of serum London to looped/cyclic peptides of protein X2 of SARS-CoV Urbani [3]: 0.8
- Binding of serum SARS-green to linear peptides of protein X2 [3]: 0.1
- Binding of serum SARS-green to looped/cyclic peptides of protein X2 of SARS-CoV Urbani [3]: 0.3
- Binding of serum SARS-yellow to linear peptides of protein X2 [3]: 0.4
- Binding of serum SARS-yellow to looped/cyclic peptides of protein X2 of SARS-CoV Urbani [3]: 0.6

Sequence: VTAFQHQNSKKTTKL
- Binding of a rabbit serum to linear peptides [1]: 0.6
- Binding of a rabbit serum to looped peptides [1]: 0.4
- Binding of Control Serum Blood-Bank to Looped peptides [2]: 0.5
- Binding of Control serum Blood-bank to linear peptides [2]: 0.3
- Binding of Control serum LUMC to linear peptides [2]: 0.5
- Binding of Control serum LUMC to looped peptides [2]: 0.5
- Binding of serum 1a to linear peptides of protein X2 [3]: 0.4
- Binding of serum 1a to looped/cyclic peptides of protein X2 of SARS-CoV Urbani [3]: 0.4
- Binding of serum 1b to linear peptides of protein X2 [3]: 0.4
- Binding of serum 1b to looped/cyclic peptides of protein X2 of SARS-CoV Urbani [3]: 0.3
- Binding of serum 2 to linear peptides of protein X2 [3]: 0.2
- Binding of serum 2 to looped/cyclic peptides of protein X2 of SARS-CoV Urbani [3]: 0.1
- Binding of serum 6 to linear peptides of protein X2 [3]: 0.3
- Binding of serum 6 to looped/cyclic peptides of protein X2 of SARS-CoV Urbani [3]: 0.3
- Binding of serum 37 to linear peptides of protein X2 [3]: 0.5
- Binding of serum 37 to looped/cyclic peptides of protein X2 of SARS-CoV Urbani [3]: 0.3
- Binding of serum 62 to linear peptides of protein X2 [3]: 0.3
- Binding of serum 62 to looped/cyclic peptides of protein X2 of SARS-CoV Urbani [3]: 0.5
- Binding of serum London to linear peptides of protein X2 [3]: 0.1
- Binding of serum London to looped/cyclic peptides of protein X2 of SARS-CoV Urbani [3]: 0.2
- Binding of serum SARS-green to linear peptides of protein X2 [3]: 0.1
- Binding of serum SARS-green to looped/cyclic peptides of protein X2 of SARS-CoV Urbani [3]: 0.2
- Binding of serum SARS-yellow to linear peptides of protein X2 [3]: 0.7
- Binding of serum SARS-yellow to looped/cyclic peptides of protein X2 of SARS-CoV Urbani [3]: 0.5

Sequence: VTLACFVLAAVYRIN
- Rabbit serum linear peptides [1]: 0.2
- Rabbit serum looped peptides [1]: 0.3
- Binding of Control Serum Blood-Bank to Looped peptides of the protein M of SARS-CoV Urbani [2]: 0.8
- Binding of Control serum Blood-bank to linear peptides of the protein M of SARS-CoV Urbani [2]: 0.5
- Binding of Control serum LUMC to linear peptides of the protein M of SARS-CoV Urbani [2]: 0.5
- Binding of Control serum LUMC to looped peptides of the protein M of SARS-CoV Urbani [2]: 0.7
- Binding of serum 1a to linear peptides of protein M of SARS-CoV Urbani [3]: 0.7
- Binding of serum 1a to looped/cyclic peptides of protein M of SARS-CoV Urbani [3]: 0.8
- Binding of serum 1b to linear peptides of protein M of SARS-CoV Urbani [3]: 0.6
- Binding of serum 1b to looped/cyclic peptides of protein M of SARS-CoV Urbani [3]: 0.6
- Binding of serum 2 to linear peptides of protein M of SARS-CoV Urbani [3]: 0.5
- Binding of serum 2 to looped/cyclic peptides of protein M of SARS-CoV Urbani [3]: 0.6
- Binding of serum 6 to linear peptides of protein M of SARS-CoV Urbani [3]: 0.4
- Binding of serum 6 to looped/cyclic peptides of protein M of SARS-CoV Urbani [3]: 0.8
- Binding of serum 37 to linear peptides of protein M of SARS-CoV Urbani [3]: 0.4
- Binding of serum 37 to looped/cyclic peptides of protein M of SARS-CoV Urbani [3]: 0.7
- Binding of serum 62 to linear peptides of protein M of SARS-CoV Urbani [3]: 0.5
- Binding of serum 62 to looped/cyclic peptides of protein M of SARS-CoV Urbani [3]: 0.7
- Binding of serum London to linear peptides of protein M of SARS-CoV Urbani [3]: 0.3
- Binding of serum London to looped/cyclic peptides of protein M of SARS-CoV Urbani [3]: 0.3
- Binding of serum SARS-green to linear peptides of protein M of SARS-CoV Urbani [3]: 0.5
- Binding of serum SARS-green to looped/cyclic peptides of protein M of SARS-CoV Urbani [3]: 0.2
- Binding of serum SARS-yellow to linear peptides of protein M of SARS-CoV Urbani [3]: 0.1
- Binding of serum SARS-yellow to looped/cyclic peptides of protein M of SARS-CoV Urbani [3]: 0.6

Sequence: VVHGYFTEVYYQLES
- Binding of a rabbit serum to linear peptides [1]: 0.1
- Binding of a rabbit serum to looped peptides [1]: 0.7
- Binding of Control Serum Blood-Bank to Looped peptides [2]: 0.4
- Binding of Control serum Blood-bank to linear peptides [2]: 0.4
- Binding of Control serum LUMC to linear peptides [2]: 0.8
- Binding of Control serum LUMC to looped peptides [2]: 0.6
- Binding of serum 1a to linear peptides of protein X1 of SARS-CoV Urbani [3]: 0.8
- Binding of serum 1a to looped/cyclic peptides of protein X1 of SARS-CoV Urbani [3]: 0.6
- Binding of serum 1b to linear peptides of protein X1 of SARS-CoV Urbani [3]: 0.7
- Binding of serum 1b to looped/cyclic peptides of protein X1 of SARS-CoV Urbani [3]: 0.4
- Binding of serum 2 to linear peptides of protein X1 of SARS-CoV Urbani [3]: 0.4
- Binding of serum 2 to looped/cyclic peptides of protein X1 of SARS-CoV Urbani [3]: 0.4
- Binding of serum 6 to linear peptides of protein X1 of SARS-CoV Urbani [3]: 0.3
- Binding of serum 6 to looped/cyclic peptides of protein X1 of SARS-CoV Urbani [3]: 0.3
- Binding of serum 37 to linear peptides of protein X1 of SARS-CoV Urbani [3]: 0.5
- Binding of serum 37 to looped/cyclic peptides of protein X1 of SARS-CoV Urbani [3]: 0.6
- Binding of serum 62 to linear peptides of protein X1 of SARS-CoV Urbani [3]: 0.4
- Binding of serum 62 to looped/cyclic peptides of protein X1 of SARS-CoV Urbani [3]: 0.5
- Binding of serum London to linear peptides of protein X1 of SARS-CoV Urbani [3]: 0.2
- Binding of serum London to looped/cyclic peptides of protein X1 of SARS-CoV Urbani [3]: 0.2
- Binding of serum SARS-green to linear peptides of protein X1 of SARS-CoV Urbani [3]: 0.2
- Binding of serum SARS-green to looped/cyclic peptides of protein X1 of SARS-CoV Urbani [3]: 0.2
- Binding of serum SARS-yellow to linear peptides of protein X1 of SARS-CoV Urbani [3]: 0.3
- Binding of serum SARS-yellow to looped/cyclic peptides of protein X1 of SARS-CoV Urbani [3]: 0.4

Sequence: VVILRIGTQVLKTMS
- Binding of a rabbit serum to linear peptides [1]: 0.4
- Binding of a rabbit serum to looped peptides [1]: 0.4
- Binding of Control Serum Blood-Bank to Looped peptides [2]: 0.3
- Binding of Control serum Blood-bank to linear peptides [2]: 0.7
- Binding of Control serum LUMC to linear peptides [2]: 0.5
- Binding of Control serum LUMC to looped peptides [2]: 0.3
- Binding of serum 1a to linear peptides of protein X2 [3]: 0.6
- Binding of serum 1a to looped/cyclic peptides of protein X2 of SARS-CoV Urbani [3]: 0.4
- Binding of serum 1b to linear peptides of protein X2 [3]: 0.5
- Binding of serum 1b to looped/cyclic peptides of protein X2 of SARS-CoV Urbani [3]: 0.4
- Binding of serum 2 to linear peptides of protein X2 [3]: 0.5
- Binding of serum 2 to looped/cyclic peptides of protein X2 of SARS-CoV Urbani [3]: 0.3
- Binding of serum 6 to linear peptides of protein X2 [3]: 0.5
- Binding of serum 6 to looped/cyclic peptides of protein X2 of SARS-CoV Urbani [3]: 0.3
- Binding of serum 37 to linear peptides of protein X2 [3]: 0.6
- Binding of serum 37 to looped/cyclic peptides of protein X2 of SARS-CoV Urbani [3]: 0.3
- Binding of serum 62 to linear peptides of protein X2 [3]: 0.6
- Binding of serum 62 to looped/cyclic peptides of protein X2 of SARS-CoV Urbani [3]: 0.4
- Binding of serum London to linear peptides of protein X2 [3]: 0.4
- Binding of serum London to looped/cyclic peptides of protein X2 of SARS-CoV Urbani [3]: 0.2
- Binding of serum SARS-green to linear peptides of protein X2 [3]: 0.5
- Binding of serum SARS-green to looped/cyclic peptides of protein X2 of SARS-CoV Urbani [3]: 0.3
- Binding of serum SARS-yellow to linear peptides of protein X2 [3]: 0.6
- Binding of serum SARS-yellow to looped/cyclic peptides of protein X2 of SARS-CoV Urbani [3]: 0.4
